Results reported in ChEMBL document CHEMBL1201862, “PubChem BioAssay data set” (2004).
Calls of active or inactive are those of the source.

What was measured:
Nonstructural protein 1 = Nonstructural protein 1 (Influenza A virus, UniProt Q194T2); type: functional, Influenza A virus (A/California/07/2009(H1N1))
Cytochrome P450 2C19 = Cytochrome P450 2C19 (Homo sapiens, UniProt P33261); assay: Cytochrome panel assay with activity outcomes. Panel member name: p450-cyp2c19 Compounds with AC50 equal or less than 10 uM are considered active; type: functional; conditions: read-out: AC50
fMet-Leu-Phe receptor = biological target: T1, fMet-Leu-Phe receptor (Homo sapiens, UniProt P21462); assay: formyl peptide receptor binders – dose response (AID 519); type: functional
T1 sequence (P21462 whole entry): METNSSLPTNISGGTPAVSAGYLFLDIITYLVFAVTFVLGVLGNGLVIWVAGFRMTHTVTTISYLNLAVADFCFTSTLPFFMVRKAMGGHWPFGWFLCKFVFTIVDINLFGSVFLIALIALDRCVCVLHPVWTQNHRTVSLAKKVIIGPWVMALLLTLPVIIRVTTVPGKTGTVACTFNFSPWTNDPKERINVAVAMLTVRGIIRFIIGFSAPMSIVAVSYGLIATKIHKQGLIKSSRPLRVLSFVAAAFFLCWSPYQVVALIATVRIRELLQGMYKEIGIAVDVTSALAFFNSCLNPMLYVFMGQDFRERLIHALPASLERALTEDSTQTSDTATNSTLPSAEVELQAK

Cytochrome P450 3A4 = Cytochrome P450 3A4 (Homo sapiens, UniProt P08684);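 note: CYP3A4 tested as one member of a cytochrome P450 panel screen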
Beta-galactosidase = Beta-galactosidase (Escherichia coli, UniProt Q8VNN2); assay: detection-enzyme interference by beta-gal modulators – biochemical, E. coli enzyme, set 3, artefact control for CCR6 antagonist project, dose response (AID 504712); type: functional
[1] = biological target: T2, Zinc finger protein mex-5 (Caenorhabditis elegans, UniProt Q9XUB2); assay: potency of MEX-5 RNA-binding blockers – biochemical, C. elegans, fluorescence polarization, dose response (AID 1960)
T2 sequence (Q9XUB2 whole entry): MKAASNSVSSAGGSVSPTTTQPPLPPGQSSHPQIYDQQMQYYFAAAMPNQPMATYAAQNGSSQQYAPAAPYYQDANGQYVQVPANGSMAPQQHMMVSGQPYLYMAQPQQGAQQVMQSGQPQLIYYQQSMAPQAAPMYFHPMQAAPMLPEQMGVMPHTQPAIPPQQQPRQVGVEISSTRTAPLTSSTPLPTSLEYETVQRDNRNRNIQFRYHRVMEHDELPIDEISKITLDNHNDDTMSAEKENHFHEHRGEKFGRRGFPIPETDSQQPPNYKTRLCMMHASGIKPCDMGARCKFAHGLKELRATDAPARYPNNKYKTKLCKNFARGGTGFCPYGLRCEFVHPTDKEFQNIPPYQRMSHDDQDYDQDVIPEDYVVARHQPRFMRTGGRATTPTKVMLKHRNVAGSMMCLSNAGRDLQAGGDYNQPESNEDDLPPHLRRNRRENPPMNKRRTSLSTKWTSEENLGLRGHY

[2] = biological target: T3, RNA-binding protein pos-1 (Caenorhabditis elegans, UniProt G5EF15); assay: disruptors of C. elegans POS-1 RNA interaction – biochemical, fluorescence polarization, dose response (AID 1964);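 note: purified POS-1 fused to maltose binding protein made in E. coli; potency of compounds blocking POS-1 binding to fluorescent RNA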
T3 sequence (G5EF15 whole entry): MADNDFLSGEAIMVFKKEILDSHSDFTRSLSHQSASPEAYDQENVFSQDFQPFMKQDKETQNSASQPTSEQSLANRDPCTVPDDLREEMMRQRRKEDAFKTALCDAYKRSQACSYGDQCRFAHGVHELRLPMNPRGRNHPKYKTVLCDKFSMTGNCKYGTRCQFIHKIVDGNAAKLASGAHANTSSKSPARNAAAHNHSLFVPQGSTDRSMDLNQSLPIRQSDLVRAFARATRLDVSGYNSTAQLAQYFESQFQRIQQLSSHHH

Aminopeptidase N = biological target: T4, Aminopeptidase N (Plasmodium falciparum FcB1/Columbia, UniProt O96935); assay: malaria alanyl aminopeptidase activity blockers – biochemical, fluorogenic H-Leu-NHMec substrate, 1536-well (AID 1445); set-up: species or system Plasmodium falciparum 3D7, 3D7
T4 sequence (O96935 whole entry): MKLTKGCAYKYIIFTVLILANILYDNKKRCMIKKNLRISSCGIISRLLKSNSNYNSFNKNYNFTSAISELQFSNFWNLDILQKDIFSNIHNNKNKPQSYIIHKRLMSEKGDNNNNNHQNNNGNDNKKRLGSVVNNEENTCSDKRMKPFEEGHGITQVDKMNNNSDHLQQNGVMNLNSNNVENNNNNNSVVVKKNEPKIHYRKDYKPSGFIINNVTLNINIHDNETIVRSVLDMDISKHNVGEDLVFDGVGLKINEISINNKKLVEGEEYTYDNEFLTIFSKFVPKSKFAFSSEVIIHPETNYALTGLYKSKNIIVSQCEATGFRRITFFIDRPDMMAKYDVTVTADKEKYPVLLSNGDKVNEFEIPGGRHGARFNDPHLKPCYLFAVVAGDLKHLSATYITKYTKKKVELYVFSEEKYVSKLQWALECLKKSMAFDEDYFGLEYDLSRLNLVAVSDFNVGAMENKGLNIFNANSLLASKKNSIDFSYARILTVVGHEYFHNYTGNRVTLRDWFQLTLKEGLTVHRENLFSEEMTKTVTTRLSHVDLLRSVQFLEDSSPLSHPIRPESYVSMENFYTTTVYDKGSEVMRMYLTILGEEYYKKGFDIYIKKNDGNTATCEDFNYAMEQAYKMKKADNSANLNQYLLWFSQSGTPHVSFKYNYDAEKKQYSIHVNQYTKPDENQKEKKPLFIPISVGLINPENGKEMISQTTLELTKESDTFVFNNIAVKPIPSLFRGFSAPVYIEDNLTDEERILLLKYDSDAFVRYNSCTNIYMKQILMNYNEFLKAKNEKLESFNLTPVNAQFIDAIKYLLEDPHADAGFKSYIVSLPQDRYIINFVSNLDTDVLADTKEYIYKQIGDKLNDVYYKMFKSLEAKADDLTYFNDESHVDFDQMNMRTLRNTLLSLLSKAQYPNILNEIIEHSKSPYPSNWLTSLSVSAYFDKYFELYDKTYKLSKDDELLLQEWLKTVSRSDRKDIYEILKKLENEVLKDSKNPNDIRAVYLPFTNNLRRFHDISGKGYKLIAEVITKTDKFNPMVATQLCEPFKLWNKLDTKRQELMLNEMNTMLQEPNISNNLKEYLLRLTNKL

[3] = viability loss of HPDE-C7K cells – cell-based, fluorescence, HTS, primary screen (AID 431); type: functional; conditions: Homo sapiens
[4] = HPDE-C7 pancreatic duct cell viability loss – fluorescence, HTS (AID 430); type: functional, cell-based; conditions: Homo sapiens
[5] = Luminescence Cell-Based Dose Confirmation HTS to Identify Activators of 5'UTR Stem-Loop Driven Alpha-Synuclein mRNA Translation in H4 Neuroglioblastoma Cells. [Related pubchem assays: 1829 (Project Summary), 1814 (Primary HTS)]; type: functional
H4 = assay: Luminescence Cell-Based Dose Response HTS to Identify Activators of 5'UTR Stem-Loop Driven Prion Protein mRNA Translation in H4 Neuroglioblastoma Cells. [Related pubchem assays: 1829 (Project Summary), 1814 (Primary HTS)]; type: functional; conditions: Homo sapiens
[6] = Luminescence Cell-Based Dose Response HTS to Identify Activators of Luciferase Translation or Activity in H4 […] Cells. [Related pubchem assays: 1829 (Project Summary), 1814 (Primary HTS)]; type: functional
[7] = biological target: G-protein coupled receptor 55 (Homo sapiens, UniProt Q9Y2T6); assay: selective activators of receptor GPR55 – imaging, U2OS cells, beta-arrestin-GFP redistribution, primary screen (AID 1961); type: functional
Paired box protein Pax-8 = Paired box protein Pax-8 (Homo sapiens, UniProt Q06710); assay: PAX8 transcriptional activity inhibition in RMG-I – RMG-I cells, luciferase, cherry-pick, dose response (AID 687027); type: functional, cell-based;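 note: luciferase reporter driven by Pax8 target thyroperoxidase promoter measured by SteadyGlo luminescence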
[8] = biological target: Disintegrin and metalloproteinase domain-containing protein 17 (Homo sapiens, UniProt P78536); assay: inhibition of ADAM17 substrate cleavage – biochemical, quenched FRET substrate, counter-screen for ADAM10 exosite inhibitor project, dose response (AID 743253)
[9] = biological target: T5, Polyadenylate-binding protein 1 (Homo sapiens, UniProt P11940); assay: MLLE binding blockers, Cy5 peptide tracer – biochemical, fluorescence polarization, Cy5-PAM2 peptide, secondary, miRNA deadenylation inhibitor project, dose response (AID 602260); type: functional; conditions: read-out: IC50_Mean
[10] = biological target: T5, Polyadenylate-binding protein 1; assay: MLLE domain peptide-binding blockers, IC50 – biochemical, fluorescence polarization, FITC-PAM2 peptide, dose response (AID 602259); type: functional; conditions: read-out: IC50_Mean
cells = type: functional
[11] = THP-1 cell cytotoxicity, dose response, cytotoxicity control for non-replicating M. tuberculosis project (AID 489025); type: functional
[12] = Vero E6 cell cytotoxicity, dose response, cytotoxicity control for non-replicating M. tuberculosis project, secondary assay (AID 492998); type: functional, VeroE6; conditions: Vero C1008
[13] = HepG2 cell cytotoxicity, dose response, cytotoxicity control for non-replicating M. tuberculosis project (AID 489018); type: functional; conditions: Mycobacterium tuberculosis
[14] = biological target: T6, Ubiquitin-conjugating enzyme E2 N (Homo sapiens, UniProt P61088); type: functional;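 note: Dose-response confirmation in a TR-FRET assay detecting UBC13-driven polyubiquitin chain formation, inhibition measured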
T6 sequence (P61088 whole entry): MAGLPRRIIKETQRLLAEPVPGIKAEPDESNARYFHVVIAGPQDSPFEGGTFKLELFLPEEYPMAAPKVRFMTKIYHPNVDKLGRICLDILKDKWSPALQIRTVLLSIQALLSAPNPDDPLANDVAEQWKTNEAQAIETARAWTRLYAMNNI

[15] = biological target: Voltage-gated N-type calcium channel alpha-1B subunit/Amyloid beta A4 precursor protein-binding family A member 1 (Homo sapiens, UniProt Q00975+Q02410); type: protein assay
[16] = Luminescence Cell-Based Dose Retest to Confirm Inhibitors of Cancer Stem Cells. [Related pubchem assays (depositor defined):AID2717, AID2721]; type: functional; conditions: Homo sapiens

T5 sequence (P11940 whole entry, the tested form may be a part): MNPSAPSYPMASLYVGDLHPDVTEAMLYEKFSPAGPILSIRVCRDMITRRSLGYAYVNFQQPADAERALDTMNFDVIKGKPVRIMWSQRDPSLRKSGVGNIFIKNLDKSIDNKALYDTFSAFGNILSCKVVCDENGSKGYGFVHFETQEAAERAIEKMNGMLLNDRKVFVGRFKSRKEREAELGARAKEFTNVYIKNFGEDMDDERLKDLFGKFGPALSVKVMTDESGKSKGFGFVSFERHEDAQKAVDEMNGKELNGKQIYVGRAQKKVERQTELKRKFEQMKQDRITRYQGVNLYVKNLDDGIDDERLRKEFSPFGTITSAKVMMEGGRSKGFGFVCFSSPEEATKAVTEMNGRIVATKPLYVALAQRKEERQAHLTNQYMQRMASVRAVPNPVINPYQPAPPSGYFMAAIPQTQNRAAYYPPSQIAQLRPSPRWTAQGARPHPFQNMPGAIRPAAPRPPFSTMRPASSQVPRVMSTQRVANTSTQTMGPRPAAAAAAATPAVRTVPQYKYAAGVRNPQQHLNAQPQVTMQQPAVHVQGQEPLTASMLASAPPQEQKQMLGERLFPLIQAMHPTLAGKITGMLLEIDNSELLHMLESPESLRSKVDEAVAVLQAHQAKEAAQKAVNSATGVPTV
Chain of Cytochrome P450 3A4 (P08684 whole entry): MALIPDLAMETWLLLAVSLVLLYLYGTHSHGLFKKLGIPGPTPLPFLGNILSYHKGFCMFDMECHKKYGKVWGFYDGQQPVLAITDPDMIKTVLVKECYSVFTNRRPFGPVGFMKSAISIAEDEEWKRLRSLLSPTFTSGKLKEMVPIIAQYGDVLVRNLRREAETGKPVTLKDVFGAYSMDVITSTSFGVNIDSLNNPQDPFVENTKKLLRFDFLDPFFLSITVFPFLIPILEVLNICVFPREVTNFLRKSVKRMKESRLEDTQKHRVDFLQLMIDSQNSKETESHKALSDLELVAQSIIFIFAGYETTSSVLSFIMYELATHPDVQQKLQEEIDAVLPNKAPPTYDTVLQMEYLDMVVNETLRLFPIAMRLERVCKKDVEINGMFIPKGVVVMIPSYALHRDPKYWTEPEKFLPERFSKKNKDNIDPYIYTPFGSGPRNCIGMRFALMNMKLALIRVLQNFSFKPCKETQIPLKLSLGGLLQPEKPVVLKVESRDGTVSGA
Chain of Nonstructural protein 1 (Q194T2 whole entry): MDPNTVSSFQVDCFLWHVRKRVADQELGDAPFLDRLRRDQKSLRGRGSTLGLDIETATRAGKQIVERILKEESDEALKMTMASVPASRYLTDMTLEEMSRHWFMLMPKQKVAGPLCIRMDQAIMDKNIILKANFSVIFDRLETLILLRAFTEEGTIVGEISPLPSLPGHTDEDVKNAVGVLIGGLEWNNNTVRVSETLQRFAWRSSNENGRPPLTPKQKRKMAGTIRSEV
Chain of Cytochrome P450 2C19 (P33261 whole entry): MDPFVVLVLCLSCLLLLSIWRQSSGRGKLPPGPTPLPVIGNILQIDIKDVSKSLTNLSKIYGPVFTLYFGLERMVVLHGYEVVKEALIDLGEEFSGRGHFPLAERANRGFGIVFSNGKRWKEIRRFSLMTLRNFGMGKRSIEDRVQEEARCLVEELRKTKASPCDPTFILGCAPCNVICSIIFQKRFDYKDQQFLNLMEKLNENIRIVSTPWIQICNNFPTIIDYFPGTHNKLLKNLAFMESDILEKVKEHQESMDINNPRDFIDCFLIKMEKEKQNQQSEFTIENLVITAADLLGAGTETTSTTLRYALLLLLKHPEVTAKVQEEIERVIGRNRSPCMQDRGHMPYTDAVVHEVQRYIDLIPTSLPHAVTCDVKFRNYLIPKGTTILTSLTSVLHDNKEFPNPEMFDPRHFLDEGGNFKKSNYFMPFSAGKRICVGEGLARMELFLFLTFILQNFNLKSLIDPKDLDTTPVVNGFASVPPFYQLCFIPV
Chain of Voltage-gated N-type calcium channel alpha-1B subunit/Amyloid beta A4 precursor protein-binding family A member 1 (Q00975 whole entry): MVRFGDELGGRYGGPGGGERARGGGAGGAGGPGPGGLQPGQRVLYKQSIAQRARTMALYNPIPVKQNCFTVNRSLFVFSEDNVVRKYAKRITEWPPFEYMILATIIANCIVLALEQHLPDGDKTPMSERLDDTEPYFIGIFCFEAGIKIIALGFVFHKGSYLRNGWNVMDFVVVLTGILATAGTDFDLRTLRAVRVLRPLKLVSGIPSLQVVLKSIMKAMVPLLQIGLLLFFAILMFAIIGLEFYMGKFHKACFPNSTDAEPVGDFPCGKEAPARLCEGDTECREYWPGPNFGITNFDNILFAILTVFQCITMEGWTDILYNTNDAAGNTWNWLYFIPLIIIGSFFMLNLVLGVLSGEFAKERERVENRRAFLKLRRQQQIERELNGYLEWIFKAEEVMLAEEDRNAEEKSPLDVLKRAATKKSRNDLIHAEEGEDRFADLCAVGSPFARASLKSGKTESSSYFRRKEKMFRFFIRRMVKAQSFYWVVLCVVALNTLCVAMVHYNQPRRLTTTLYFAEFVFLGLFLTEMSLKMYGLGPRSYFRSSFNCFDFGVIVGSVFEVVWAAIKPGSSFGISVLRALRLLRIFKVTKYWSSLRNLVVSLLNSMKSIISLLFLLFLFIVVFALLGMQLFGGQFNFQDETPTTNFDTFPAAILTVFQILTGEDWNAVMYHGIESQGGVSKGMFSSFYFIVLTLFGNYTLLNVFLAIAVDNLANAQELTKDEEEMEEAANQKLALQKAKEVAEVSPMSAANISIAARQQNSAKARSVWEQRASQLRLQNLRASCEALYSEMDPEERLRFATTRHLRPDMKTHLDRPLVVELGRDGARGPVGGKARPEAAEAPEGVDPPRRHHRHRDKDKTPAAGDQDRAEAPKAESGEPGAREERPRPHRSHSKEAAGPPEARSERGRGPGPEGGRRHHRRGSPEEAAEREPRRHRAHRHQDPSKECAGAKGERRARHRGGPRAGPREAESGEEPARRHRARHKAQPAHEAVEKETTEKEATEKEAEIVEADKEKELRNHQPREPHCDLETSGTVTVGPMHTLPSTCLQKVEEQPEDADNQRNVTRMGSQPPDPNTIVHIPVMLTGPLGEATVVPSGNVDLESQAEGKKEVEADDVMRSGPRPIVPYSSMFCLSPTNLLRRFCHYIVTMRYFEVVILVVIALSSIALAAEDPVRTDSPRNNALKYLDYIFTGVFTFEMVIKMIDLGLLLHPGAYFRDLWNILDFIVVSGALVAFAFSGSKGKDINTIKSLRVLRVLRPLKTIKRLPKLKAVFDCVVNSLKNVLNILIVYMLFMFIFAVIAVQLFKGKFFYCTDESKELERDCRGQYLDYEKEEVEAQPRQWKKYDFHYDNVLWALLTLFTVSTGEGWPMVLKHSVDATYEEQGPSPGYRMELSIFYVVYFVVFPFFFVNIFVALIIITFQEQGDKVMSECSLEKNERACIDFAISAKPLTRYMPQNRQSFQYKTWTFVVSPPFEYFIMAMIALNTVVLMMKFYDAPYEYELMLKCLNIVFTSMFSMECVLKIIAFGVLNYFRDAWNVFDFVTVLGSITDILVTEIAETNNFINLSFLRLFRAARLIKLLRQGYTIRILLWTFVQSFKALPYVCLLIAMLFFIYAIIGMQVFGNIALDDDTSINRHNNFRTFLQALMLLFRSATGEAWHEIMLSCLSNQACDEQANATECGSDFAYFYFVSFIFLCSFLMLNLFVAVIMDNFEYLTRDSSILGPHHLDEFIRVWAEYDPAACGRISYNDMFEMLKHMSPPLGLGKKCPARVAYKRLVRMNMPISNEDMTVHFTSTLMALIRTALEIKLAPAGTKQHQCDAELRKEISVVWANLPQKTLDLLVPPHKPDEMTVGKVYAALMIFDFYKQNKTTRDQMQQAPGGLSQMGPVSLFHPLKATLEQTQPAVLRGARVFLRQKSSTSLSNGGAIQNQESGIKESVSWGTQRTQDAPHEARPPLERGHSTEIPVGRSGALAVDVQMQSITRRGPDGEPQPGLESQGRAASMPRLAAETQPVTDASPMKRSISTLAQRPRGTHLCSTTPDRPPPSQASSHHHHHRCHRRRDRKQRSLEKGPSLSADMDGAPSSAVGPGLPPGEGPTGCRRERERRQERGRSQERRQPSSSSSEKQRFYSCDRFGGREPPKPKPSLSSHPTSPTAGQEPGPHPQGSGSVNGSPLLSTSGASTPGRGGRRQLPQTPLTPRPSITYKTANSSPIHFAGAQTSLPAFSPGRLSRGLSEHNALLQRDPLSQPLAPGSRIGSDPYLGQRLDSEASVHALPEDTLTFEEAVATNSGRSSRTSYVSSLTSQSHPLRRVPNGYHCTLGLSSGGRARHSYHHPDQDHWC
Chain of Voltage-gated N-type calcium channel alpha-1B subunit/Amyloid beta A4 precursor protein-binding family A member 1 (Q02410 whole entry): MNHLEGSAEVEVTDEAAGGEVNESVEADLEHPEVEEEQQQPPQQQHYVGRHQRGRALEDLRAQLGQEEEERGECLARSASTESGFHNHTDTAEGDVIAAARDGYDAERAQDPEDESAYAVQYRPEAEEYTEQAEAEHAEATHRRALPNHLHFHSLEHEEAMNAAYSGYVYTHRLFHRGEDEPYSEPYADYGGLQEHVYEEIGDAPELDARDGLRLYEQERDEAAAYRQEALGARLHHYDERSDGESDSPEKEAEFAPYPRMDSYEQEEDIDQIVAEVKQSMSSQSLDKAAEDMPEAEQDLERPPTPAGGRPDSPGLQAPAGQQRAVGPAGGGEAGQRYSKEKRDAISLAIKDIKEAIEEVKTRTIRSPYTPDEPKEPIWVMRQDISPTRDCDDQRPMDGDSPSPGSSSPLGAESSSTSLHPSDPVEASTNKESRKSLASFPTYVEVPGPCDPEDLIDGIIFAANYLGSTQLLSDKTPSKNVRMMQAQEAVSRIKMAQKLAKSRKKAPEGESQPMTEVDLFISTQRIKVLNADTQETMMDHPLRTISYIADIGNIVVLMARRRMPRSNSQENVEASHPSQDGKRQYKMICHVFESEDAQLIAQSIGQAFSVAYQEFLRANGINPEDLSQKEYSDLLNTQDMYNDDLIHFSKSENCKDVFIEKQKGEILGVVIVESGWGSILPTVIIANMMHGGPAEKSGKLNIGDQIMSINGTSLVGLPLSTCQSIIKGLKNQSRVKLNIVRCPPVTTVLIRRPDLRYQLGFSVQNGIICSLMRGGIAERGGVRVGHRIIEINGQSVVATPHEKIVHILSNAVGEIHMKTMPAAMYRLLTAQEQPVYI

Structure (SMILES): CCN1C(=O)/C(=C2\SC(=S)N(CCCOC)C2=O)c2ccccc21
- IC50 (Nonstructural protein 1): 62.7 µM (active)
- AC50 (Cytochrome P450 2C19): 11.2 µM (inconclusive)
- Ki (fMet-Leu-Phe receptor): > 66.7 µM (inactive)
- AC50 (Cytochrome P450 3A4): 3.55 µM (inconclusive)

Structure (SMILES): O=C(CSc1nccn1-c1ncc(C(F)(F)F)cc1Cl)c1ccc(Cl)cc1
- IC50 (Beta-galactosidase): > 66.6 µM (inactive)

Structure (SMILES): Oc1[nH]c2ccc(Br)cc2c1N=Nc1nn[nH]n1
- EC50 [1]: 5.18 µM (active)
- EC50 [2]: 14 µM (active)
- IC50 (Aminopeptidase N): 26.5 µM (active)

Structure (SMILES): Cc1ccc(Cl)cc1N1CCN(C(=O)c2ccc(NS(=O)(=O)c3c(C)noc3C)cc2)CC1
- EC50 [3]: 16.7 µM (active)
- EC50 [4]: 13.2 µM (active)

Structure (SMILES): CCOC(=O)C1=C(N)n2c(s/c(=C\c3ccco3)c2=O)=C(C(=O)OCC)C1c1ccco1 (stereo not given)
- EC50 [5]: > 120 µM (not active)
- EC50 [3]: 1.19 µM (active)
- EC50 (H4): > 120 µM (not active)
- EC50 [4]: 1.47 µM (active)
- EC50 [6]: > 120 µM (not active)
- AC50 (Cytochrome P450 3A4): 28.2 µM (inconclusive)

Structure (SMILES): OCCNc1nc(O)c2c(ncn2Cc2ccccc2)n1
- EC50 [7]: > 32 µM (inactive)

Structure (SMILES): O=c1[nH]c2ccccc2n1C1CCN(C(c2ccccc2OC(F)(F)F)c2nnnn2-c2ccc3c(c2)OCCO3)CC1 (stereo not given)
- AC50 (Paired box protein Pax-8): 4.52 µM (active)
- IC50 [8]: > 69.5 µM (inactive)

Structure (SMILES): Cc1ccc(/C=C2\SC(=S)N(c3c(C)n(C)n(-c4ccccc4)c3=O)C2=O)cc1
- IC50 [9]: > 66 µM (inactive)
- IC50 [10]: > 66 µM (inactive)
- IC50 (Aminopeptidase N): 120 µM (active)

Structure (SMILES): O=C(CNC(=O)c1ccccc1Cl)N/N=C/c1ccc([N+](=O)[O-])s1
- IC50 (cells): 36.6 µM (active)
- CC50 [11]: 25 µM (active)
- CC50 [12]: 13.6 µM (active)
- CC50 [13]: > 20 µM (active)

Structure (SMILES): Cc1ccc(NC(=O)c2ccc([N+](=O)[O-])o2)c(C)c1
- IC50 (cells): 3.46 µM (active)
- CC50 [11]: 15.4 µM (active)
- CC50 [12]: 6.74 µM (active)
- CC50 [13]: > 20 µM (active)

Structure (SMILES): NC(=O)c1nsc(C(=O)N(c2ccc(F)cc2)C(C(=O)NCC2CCCO2)c2c[nH]c3ccccc23)c1N (stereo not given)
- IC50 [14]: > 20 µM (inactive)

Structure (SMILES): C=CCOc1ccc(C2C(C(=O)c3cccs3)=C(O)C(=O)N2c2nnc(C)s2)cc1 (stereo not given)
- Ki (fMet-Leu-Phe receptor): 40.5 µM (inactive)
- EC50 [1]: 3.06 µM (active)
- EC50 [2]: 10.8 µM (inconclusive)

Structure (SMILES): NS(=O)(=O)c1ccc(N/N=C/c2ccc3c(c2)OCO3)c([N+](=O)[O-])c1
- IC50 [15]: 3.59 µM (active)

Structure (SMILES): N#CC1=C(SCC(=O)c2ccc(Br)cc2)N=C2CCCC(O)=C2C1c1ccco1 (stereo not given)
- AC50 [16]: 2.13 µM (active)
- EC50 [3]: 5.58 µM (active)
- EC50 [4]: 4.34 µM (active)

Structure (SMILES): CCC1(C)Nc2ccccc2C(=O)N1O (stereo not given)
- EC50 [3]: > 20 µM (not active)
- EC50 [4]: 17.1 µM (active)
